Among the test systems are UO-31; HCC 2998; Malme-3M; SK-MEL-2; A549; NCI-H23; SK-OV-3; NCI-H522; SNB-75; NCI-H226; MOLT-4; UACC-257; SR; KM12; RXF 393.
Holding throughout (test): NCI anticancer screen, dose series, 48 h

The values below come from ChEMBL document CHEMBL1201862, “PubChem BioAssay data set” (2004).

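1) Cells in 96-well plates. 2) Compound, 48 h, 5 concentrations. 3) Linear interpolation between surrounding doses. 4) Unreached endpoint = highest concentration. At the GI50, growth is halved.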 Active and inactive are the calls of the source. Rule as the data show it: active = GI50 up to about 1.1 µM and inactive = higher.

Consider `CSC(C1c2ccccc2N(c2ccc(C)cc2)c2[nH]c(=O)n(C)c(=O)c21)S(=O)(=O)c1ccc(C)cc1` (stereo unspecified), for which the GI50 with UO-31, with HCC 2998, with Malme-3M, with SK-MEL-2, with A549 and in the assay on NCI-H23 was > 100 µM (inactive) each time. The GI50 in the assay with SK-OV-3 was > 100 µM (inactive); in the assay on NCI-H522 it was 63.8 µM (inactive); with SNB-75, > 100 µM (inactive); in the assay with NCI-H226 it was > 100 µM (inactive); in the assay on MOLT-4 it was > 100 µM (inactive); in the assay on UACC-257, > 100 µM (inactive).
For `C[N+]1(CCNP(=S)(NCC[N+]2(C)Cc3c(ccc4c3OCO4)C3C2c2cc4c(cc2C[C@@H]3O)OCO4)NCC[N+]2(C)Cc3c(ccc4c3OCO4)C3C2c2cc4c(cc2C[C@@H]3O)OCO4)Cc2c(ccc3c2OCO3)C2C1c1cc3c(cc1C[C@H]2O)OCO3` (stereo partly specified), the GI50 in the assay with UO-31, with HCC 2998, in the assay with Malme-3M, in the assay on SK-MEL-2, in the assay with SR and with A549 was < 0.00191 µM (active) in each case. Moreover, the GI50 in the assay with NCI-H23, with SK-OV-3, with NCI-H522, with SNB-75, in the assay on KM12 and in the assay with RXF 393 was < 0.00191 µM (active) each time. Besides, the GI50 is 2.42 µM (inactive) in the assay on NCI-H226 and < 0.00191 µM (active) in the assay on UACC-257.
`CC(N)Cc1cccc(C(F)(F)F)c1` (stereo unspecified): the GI50 with UO-31, with HCC 2998, in the assay with Malme-3M, in the assay on SK-MEL-2, in the assay with SR and in the assay on A549 was > 100 µM (inactive) in each case. The GI50 with NCI-H23, in the assay with SK-OV-3, in the assay with NCI-H522, in the assay on SNB-75, in the assay on KM12 and in the assay on RXF 393 was > 100 µM (inactive) throughout. The GI50 in the assay on NCI-H226 and in the assay with UACC-257 was > 100 µM (inactive) in each case.
Turning to `CN(C)CCNC(=O)c1cccc2c(Nc3ccc(S(N)(=O)=O)cc3)c3ccccc3nc12`, the GI50 in the assay with UO-31 is 1.87 µM (inactive); with HCC 2998, 1.71 µM (inactive); in the assay on Malme-3M, 1.49 µM (inactive); with SK-MEL-2, 1.59 µM (inactive); in the assay with SR it was 0.0551 µM (active); in the assay on A549, 1.79 µM (inactive). In addition, the GI50 with NCI-H23 was 1.73 µM (inactive); with SK-OV-3, 0.376 µM (active); with NCI-H522 it was 0.252 µM (active); with SNB-75, 1.26 µM (inactive); in the assay on KM12, 1.72 µM (inactive); in the assay with NCI-H226 it was 1.05 µM (active). Further, the GI50 in the assay with MOLT-4 is 0.0632 µM (active); with UACC-257, 2.96 µM (inactive).
As for `CCCCCCCCCCCCCCCCCC(CCCCCCCCCCCCCCCCC)OP(=O)(O)O`, the GI50 was > 100 µM (inactive) in the assay with UO-31; > 100 µM (inactive) in the assay on HCC 2998; > 100 µM (inactive) in the assay on Malme-3M; > 100 µM (inactive) in the assay with SK-MEL-2; 42.9 µM (inactive) in the assay on SR; > 100 µM (inactive) in the assay on A549. The GI50 with NCI-H23, in the assay with SK-OV-3, in the assay on NCI-H522, with SNB-75, with KM12 and with RXF 393 was > 100 µM (inactive) in each case. Moreover, the GI50 in the assay with NCI-H226, in the assay with MOLT-4 and in the assay with UACC-257 was > 100 µM (inactive) in each case.
Turning to `COc1ccc(CNc2nc3ccc(C(F)(F)F)cc3nc2-c2ccccc2)cc1OC`, the GI50 in the assay with UO-31 is 47.6 µM (inactive); in the assay with HCC 2998 it was 13.9 µM (inactive); with Malme-3M, 73.5 µM (inactive); with SK-MEL-2, > 100 µM (inactive); with SR it was 6.64 µM (inactive); in the assay with A549, 31.3 µM (inactive). For the same compound, the GI50 is 78.7 µM (inactive) with NCI-H23; > 100 µM (inactive) with SK-OV-3; 11 µM (inactive) in the assay on SNB-75; 8.89 µM (inactive) with RXF 393; > 100 µM (inactive) in the assay with NCI-H226; 6.71 µM (inactive) in the assay on MOLT-4. Also, the GI50 in the assay on UACC-257 was 25.2 µM (inactive).
In the case of `Cc1cc(NCCCCCCNc2cc(C)nc3cc(N(C)C)ccc23)c2ccc(N(C)C)cc2n1`, the GI50 with UO-31 is 88.7 µM (inactive); with HCC 2998, 22.4 µM (inactive); with Malme-3M, 13.2 µM (inactive); in the assay with SK-MEL-2, 32.2 µM (inactive); in the assay on SR, 11 µM (inactive); in the assay on A549, > 10 µM (inactive). For the same compound, the GI50 in the assay with NCI-H23 was 25.1 µM (inactive); in the assay with SK-OV-3, 12.3 µM (inactive); in the assay with NCI-H522, 10.6 µM (inactive); with SNB-75, 10 µM (inactive); with KM12, 11.8 µM (inactive); in the assay with RXF 393, > 100 µM (inactive). Also, the values for the GI50 in the assay with MOLT-4 and with UACC-257 were 6.9 µM (inactive) and 31.6 µM (inactive), respectively.
As to `N#CC12C3C4CC5C6C4C1C6C(O)(C53)N2Cc1ccccc1` (stereo unspecified), the GI50 in the assay on UO-31, in the assay with HCC 2998, with Malme-3M, with SK-MEL-2, in the assay on SR and with A549 was > 100 µM (inactive) each time. The GI50 in the assay on NCI-H23, in the assay on SK-OV-3, in the assay on NCI-H522, with SNB-75, in the assay on KM12 and with RXF 393 was > 100 µM (inactive) in each case. Further, the GI50 in the assay with NCI-H226, in the assay with MOLT-4 and with UACC-257 was > 100 µM (inactive) each time.
Consider `CC(=O)C1=C(O)C2C3c4c[nH]c5cccc(c45)CC3C(C)(C)N2C1=O` (stereo unspecified), for which the GI50 is 25.6 µM (inactive) with UO-31; 23.1 µM (inactive) in the assay on HCC 2998; 33.9 µM (inactive) with Malme-3M; 13.1 µM (inactive) with SK-MEL-2; 28.7 µM (inactive) in the assay on A549; 11.6 µM (inactive) with NCI-H23. The GI50 in the assay on SK-OV-3 was > 100 µM (inactive); in the assay with NCI-H522, 11.9 µM (inactive); in the assay with KM12 it was 40.5 µM (inactive); with NCI-H226 it was 17.3 µM (inactive); in the assay on MOLT-4 it was 15.6 µM (inactive); in the assay on UACC-257 it was 62.2 µM (inactive).
Take `CC1=CC[C@@H](C(C)(C)O)C[C@@H]1O`: the GI50 with UO-31, with HCC 2998, in the assay on Malme-3M, with SK-MEL-2, with SR and in the assay with A549 was > 5000 µM (inactive) in each case. In addition, the GI50 in the assay with NCI-H23, with SK-OV-3, in the assay on NCI-H522, in the assay with SNB-75, in the assay with KM12 and with RXF 393 was > 5000 µM (inactive) each time. For the same compound, the GI50 with NCI-H226, with MOLT-4 and with UACC-257 was > 5000 µM (inactive) throughout.
On to `O=C(/C=C/c1ccccc1)CC(=O)CCC(=O)Nc1ccc(Cl)cc1`, for which the GI50 in the assay with UO-31 is 94 µM (inactive); in the assay with HCC 2998 it was 80.7 µM (inactive); in the assay with Malme-3M it was > 100 µM (inactive); in the assay with SK-MEL-2, > 100 µM (inactive); with A549, > 100 µM (inactive); with NCI-H23 it was > 100 µM (inactive). Further, the GI50 in the assay with SK-OV-3 was > 100 µM (inactive); in the assay on NCI-H522, > 100 µM (inactive); in the assay with KM12 it was 44.4 µM (inactive); with NCI-H226, > 100 µM (inactive); in the assay on MOLT-4 it was > 100 µM (inactive); with UACC-257, 77.3 µM (inactive).
For `Cc1ccc(NC(=O)CCc2cc(C(C)(C)C)nc(S)n2)cc1C`, the GI50 in the assay on UO-31, in the assay with HCC 2998, with Malme-3M, in the assay on SK-MEL-2, in the assay on SR and in the assay on A549 was > 100 µM (inactive) throughout. In addition, the GI50 in the assay on NCI-H23, with SK-OV-3, in the assay on NCI-H522, in the assay on SNB-75, in the assay with KM12 and in the assay on RXF 393 was > 100 µM (inactive) each time. For the same compound, the GI50 in the assay on NCI-H226, in the assay on MOLT-4 and with UACC-257 was > 100 µM (inactive) each time.
Consider `COC(=O)c1cc2ccccc2c2nc3ccccc3c(Cl)c12`, for which the GI50 in the assay with HCC 2998 is > 100 µM (inactive); in the assay on Malme-3M it was > 100 µM (inactive); in the assay with SK-MEL-2, > 100 µM (inactive); with SR, 51.8 µM (inactive); in the assay with A549 it was > 100 µM (inactive); in the assay on NCI-H23, > 100 µM (inactive). The GI50 with NCI-H522 is 32.9 µM (inactive); in the assay on SNB-75, 98.4 µM (inactive); in the assay on KM12, > 100 µM (inactive); with RXF 393, > 100 µM (inactive); in the assay with MOLT-4, > 100 µM (inactive); with UACC-257, > 100 µM (inactive).
For the compound `CCC(C)(O)c1cn(-c2ccc(S(=O)(=O)O)cc2)nn1` (stereo unspecified), the GI50 with UO-31, in the assay with HCC 2998, in the assay on Malme-3M, in the assay with SK-MEL-2, in the assay with A549 and with NCI-H23 was > 100 µM (inactive) each time. Moreover, the GI50 in the assay on SK-OV-3, in the assay with NCI-H522, with SNB-75, in the assay on KM12, with RXF 393 and in the assay on NCI-H226 was > 100 µM (inactive) each time. Moreover, the GI50 in the assay on MOLT-4 and in the assay on UACC-257 was > 100 µM (inactive) each time.
